Experiment [1] has as its target T1, SARS-CoV-2 PLpro (nsp3 1564–1878) (Severe acute respiratory syndrome coronavirus 2, UniProt P0DTD1). The experiment is described as follows: biochemical. The arrangement: FRET-quenched peptide (Pro3) cleavage by PLpro, 10 min pre-incubation, slope over 20 min, normalised to no-compound control. To be noted: low concentration screen, read-out: % of control remaining.

Experiment [2] deals with T1, SARS-CoV-2 PLpro (nsp3 1564–1878). Put plainly: biochemical. The arrangement: FRET-quenched peptide (Pro3) cleavage by PLpro, 10 min pre-incubation, slope over 20 min, normalised to no-compound control. The settings on record: high concentration screen, read-out: % of control remaining.

Structures can show the parent of a compound that is named as a salt. Where two headings read alike, the source gives them in different places. Where a SMILES comes first, the peptide text is derived from it. [ ]: non-standard residue; d: D form. The star is where a group is joined. Dolaproine = CO[C@@H]([C@@H]1CCCN1)[C@@H](C)C(=O)O; Dil = CC[C@H](C)[C@H](NC)[C@@H](CC(=O)O)OC; NMe2Val = CC(C)[C@@H](C(=O)*)N(C)C

On to `Cn1cc(C(=O)[C@@H]2CCc3[nH]cnc3C2)c2ccccc21` [Ramosetron (Hydrochloride)], for which the remaining activity at 1.25 µM in experiment [1] (Well no.=7339) turned out to be 102%. Besides, in experiment [2] (Well no.=7339), the remaining activity at 3.75 µM was 103%.

Take `CC[C@H](C)[C@@H]([C@@H](CC(=O)N1CCC[C@H]1[C@H](OC)[C@@H](C)C(=O)N[C@@H](Cc1ccccc1)C(=O)O)OC)N(C)C(=O)[C@@H](NC(=O)[C@H](C(C)C)N(C)C)C(C)C` [Auristatin F] (NMe2Val-V[Dil][Dolaproine]F-OH): the remaining activity at 1.25 µM in experiment [1] (Well no.=8602) turned out to be 106%. Also, the remaining activity at 3.75 µM in experiment [2] (Well no.=8602) came out at 100%.

As to `CN1CCC(c2c[nH]c3ccc(O)cc23)CC1` [BRL 54443 maleate], the remaining activity at 1.25 µM in experiment [1] (Well no.=231) turned out to be 101%. Also, the remaining activity at 3.75 µM in experiment [2] (Well no.=231) stood at 101%.

`C[C@]12CC[C@@H](O)C[C@@H]1CC[C@@H]1[C@@H]2CC[C@]2(C)[C@@H](O)CC[C@@H]12` [5alpha-Androstane-3alpha,17beta-diol]: the remaining activity at 1.25 µM in experiment [1] (Well no.=244) was determined as 98.9%. Besides, the remaining activity at 3.75 µM in experiment [2] (Well no.=244) amounted to 94.8%.

With `CN1CC(=O)N2[C@H](c3ccc4c(c3)OCO4)c3[nH]c4ccccc4c3C[C@@H]2C1=O` [Tadalafil], in experiment [1] (Well no.=8188), the remaining activity at 1.25 µM turned out to be 95%. For the same compound, the remaining activity at 3.75 µM in experiment [2] (Well no.=8188) was found to be 95.9%.

Turning to `CCOC(=O)N1CCC(=C2c3ccc(Cl)cc3CCc3cccnc32)CC1` [Loratadine], the remaining activity at 1.25 µM in experiment [1] (Well no.=933) amounted to 96.2%; in experiment [1] (Well no.=2274) it was 89.1%; in experiment [1] (Well no.=7337), 98.6%. Further, the results for the remaining activity at 3.75 µM in experiment [2] (Well no.=933), in experiment [2] (Well no.=2274) and in experiment [2] (Well no.=7337) were 98.6%, 89.3% and 102%, respectively.

In the case of `O=C(O)CCC/C=C\C[C@@H]1[C@H](CNNC(=O)Nc2ccccc2)[C@H]2CC[C@@H]1O2` [SQ-29548], the remaining activity at 1.25 µM in experiment [1] (Well no.=4526) turned out to be 92.8%. The remaining activity at 3.75 µM in experiment [2] (Well no.=4526) turned out to be 94.8%.

Consider `Clc1ccc(C(c2ccccc2Cl)C(Cl)Cl)cc1` (stereo not drawn) [1-(2-Chlorophenyl)-1-(4-chlorophenyl)-2,2-dichloroethane], for which the remaining activity at 1.25 µM in experiment [1] (Well no.=76) worked out at 96.7%. For the same compound, the remaining activity at 3.75 µM in experiment [2] (Well no.=76) came out at 97.1%.

`CC(C)CCC[C@@H](C)[C@H]1CC[C@H]2[C@@H]3CC(=O)[C@H]4C[C@@H](O)CC[C@]4(C)[C@H]3CC[C@]12C` [6-Ketocholestanol]: the remaining activity at 1.25 µM in experiment [1] (Well no.=6021) was 94.9%. Moreover, the remaining activity at 3.75 µM in experiment [2] (Well no.=6021) was 86.6%.

Regarding `O=C(COc1ccc(C(=O)c2ccccc2)cc1)NC1CCN(Cc2ccccc2)CC1` [AdipoRon], the remaining activity at 1.25 µM in experiment [1] (Well no.=7239) is 100%. Besides, the remaining activity at 3.75 µM in experiment [2] (Well no.=7239) amounted to 96.7%.

Regarding `CN1C(C(=O)Nc2ccccn2)=C(O)c2sccc2S1(=O)=O` [Tenoxicam], in experiment [1] (Well no.=2299), the remaining activity at 1.25 µM was determined as 98.3%. The remaining activity at 3.75 µM in experiment [2] (Well no.=2299) is 101%.

Regarding `Cc1cc(C)c(Nc2ccnc(Nc3ccc(C#N)cc3)n2)c(C)c1` [Dapivirine], the remaining activity at 1.25 µM in experiment [1] (Well no.=5223) was 97.4%. In addition, the remaining activity at 3.75 µM in experiment [2] (Well no.=5223) turned out to be 98.3%.

Regarding `O=C(O)CCC/C=C\C[C@@H]1[C@@H](/C=C/[C@H](O)C2Cc3ccccc3C2)[C@@H](F)C[C@@H]1O` [AL-8810], in experiment [1] (Well no.=205), the remaining activity at 1.25 µM was 100%. Further, the remaining activity at 3.75 µM in experiment [2] (Well no.=205) is 104%.

For the compound `CNCC(O)c1ccc(O)cc1` (stereo not drawn) [Synephrine HCl], in experiment [1] (Well no.=4900), the remaining activity at 1.25 µM turned out to be 95.6%. In experiment [2] (Well no.=4900), the remaining activity at 3.75 µM stood at 91.7%.

As to `CN1C(=O)C(Cc2c[nH]c3ccccc23)NC1=S` (stereo not drawn) [Necrostatin-1], the remaining activity at 1.25 µM was found to be 95.6% in experiment [1] (Well no.=2493), 92.6% in experiment [1] (Well no.=6196) and 109% in experiment [1] (Well no.=8505). Also, the values for the remaining activity at 3.75 µM in experiment [2] (Well no.=2493), in experiment [2] (Well no.=6196) and in experiment [2] (Well no.=8505) were 98.6%, 92.5% and 104%, respectively.

For `COc1cc(SC)ccc1C(=O)N1CCC(Cc2ccccc2)CC1` [p38 MAP Kinase Inhibitor VI, JX401], the remaining activity at 1.25 µM in experiment [1] (Well no.=2529) was determined as 101%. The remaining activity at 3.75 µM in experiment [2] (Well no.=2529) was determined as 105%.

`CCN(CC)CCN(Cc1ccc(-c2ccc(C(F)(F)F)cc2)cc1)C(=O)Cn1c(SCc2ccc(F)cc2)nc(=O)c2c1CCC2` [Darapladib (SB-480848)]: the remaining activity at 1.25 µM in experiment [1] (Well no.=8576) came to 101%. Further, in experiment [2] (Well no.=8576), the remaining activity at 3.75 µM turned out to be 98.6%.

Take `NCCCCN(Cc1nc2ccccc2[nH]1)[C@H]1CCCc2cccnc21` [Mavorixafor (trihydrochloride)]: in experiment [1] (Well no.=8167), the remaining activity at 1.25 µM was determined as 109%. The remaining activity at 3.75 µM in experiment [2] (Well no.=8167) worked out at 103%.

As to `COc1ccc2nc3n[nH]c(C)c3c(NCCOCCO)c2c1` [Ras/Rac Transformation Blocker, SCH 51344], in experiment [1] (Well no.=2619), the remaining activity at 1.25 µM was 96.5%. Further, the remaining activity at 3.75 µM in experiment [2] (Well no.=2619) amounted to 101%.

For the compound `CCN(CC)C(C)C(=O)N1c2ccccc2Sc2ccccc21` (stereo not drawn) [10-(alpha-Diethylaminopropionyl)-phenothiazine hydrochloride], the remaining activity at 1.25 µM in experiment [1] (Well no.=531) worked out at 104%. In addition, the remaining activity at 3.75 µM in experiment [2] (Well no.=531) amounted to 99.7%.

For `O=S(=O)(c1ccccc1)c1cnc2c(N3CCNCC3)cccc2c1` [SB-742457], the remaining activity at 1.25 µM in experiment [1] (Well no.=4839) amounted to 98.1%; in experiment [1] (Well no.=7183) it was 94.6%. In addition, the remaining activity at 3.75 µM in experiment [2] (Well no.=4839) was determined as 104%; in experiment [2] (Well no.=7183) it was 91.3%.

As for `N[C@@H](Cc1ccccc1)C(=O)N[C@@H](Cc1ccccc1)C(=O)O` [H-Phe-Phe-OH] (H-Phe-Phe-OH), in experiment [1] (Well no.=8742), the remaining activity at 1.25 µM was determined as 96.6%. In addition, the remaining activity at 3.75 µM in experiment [2] (Well no.=8742) amounted to 104%.

For `O=C(O)c1cc(=O)c2ccccc2[nH]1` [Kynurenic acid], the results for the remaining activity at 1.25 µM in experiment [1] (Well no.=1117) and in experiment [1] (Well no.=7403) were 97.8% and 99.6%, respectively. For the same compound, the remaining activity at 3.75 µM was 99.5% in experiment [2] (Well no.=1117) and 99.4% in experiment [2] (Well no.=7403).

On to `CCCCCC(O)c1cccc(OCc2ccc3ccccc3n2)c1` (stereo not drawn) [REV-5901], for which the remaining activity at 1.25 µM in experiment [1] (Well no.=4520) was determined as 92.4%. Besides, the remaining activity at 3.75 µM in experiment [2] (Well no.=4520) came to 95.4%.

For the compound `CC1=C[C@]23C(=O)[C@@H](C=C(COC(=O)c4ccccc4)[C@@H](O)[C@]2(O)[C@H]1OC(=O)c1ccccc1)[C@H]1[C@@H](C[C@H]3C)C1(C)C` [Ingenol 3,20-dibenzoate], the remaining activity at 1.25 µM in experiment [1] (Well no.=3363) came out at 95%. In experiment [2] (Well no.=3363), the remaining activity at 3.75 µM was 97.2%.

As to `NC(=O)c1ccc(-c2nc(-c3ccccn3)c(-c3ccc4c(c3)OCO4)[nH]2)cc1` [SB 431542 - 4-[4-(1,3-benzodioxol-5-yl)-5-(2-pyridinyl)-1H-imidazol-2-yl]benzamide], the remaining activity at 1.25 µM in experiment [1] (Well no.=2440) was found to be 106%. Moreover, the remaining activity at 3.75 µM in experiment [2] (Well no.=2440) was 107%.

As to `CC[n+]1c(/C=C/N(C)c2ccccc2)n(-c2ccccc2)c2ccc(-c3nc4ccccc4s3)cc21` [Akt Inhibitor IV], in experiment [1] (Well no.=2311), the remaining activity at 1.25 µM was found to be 102%. For the same compound, the remaining activity at 3.75 µM in experiment [2] (Well no.=2311) is 101%.

(Values after PMC8286840, “Identifying SARS-CoV-2 antiviral compounds by screening for small molecule inhibitors of Nsp3 papain-like protease” (Biochemical Journal, 2021).)
